Data on two compounds can be found in patent US7863329B2 (Eli Lilly and Company, priority 2005, dated 2011).

The experiment concerns the target T1, cloned human glucagon receptor (Homo sapiens, UniProt P47871).
T1 construct: expressed in transfected cells; host or cells: 293 HEK cells, hygromycin-selected; crude plasma membranes
Nature of the experiment: Glucagon Receptor (hGlucR) Binding Assay (SPA, I-125 glucagon competition). The source says:
The second supernate is combined with the first supernate.
The specific activity is 2200 Ci/mmol.

T1 sequence (P47871 26-477): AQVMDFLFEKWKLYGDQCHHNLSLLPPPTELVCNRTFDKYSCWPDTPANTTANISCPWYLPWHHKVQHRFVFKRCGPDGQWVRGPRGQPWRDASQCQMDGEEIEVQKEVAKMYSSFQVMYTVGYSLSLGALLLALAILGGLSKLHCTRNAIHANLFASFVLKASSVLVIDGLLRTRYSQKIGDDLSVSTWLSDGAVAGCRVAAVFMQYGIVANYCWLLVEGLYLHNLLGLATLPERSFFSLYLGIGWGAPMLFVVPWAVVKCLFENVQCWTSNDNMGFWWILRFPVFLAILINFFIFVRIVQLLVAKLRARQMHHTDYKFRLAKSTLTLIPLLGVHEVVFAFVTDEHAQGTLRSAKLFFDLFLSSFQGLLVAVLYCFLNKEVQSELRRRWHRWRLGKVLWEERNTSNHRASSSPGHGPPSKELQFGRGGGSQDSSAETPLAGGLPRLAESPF

What is called Ki is the equilibrium dissociation constant of an inhibitor or competing ligand from its target. Read a low Ki as a stronger hold on the target. `CC(C)CC(Cc1ccc(-c2ccc(C(C)(C)C)cc2)cc1)c1ccc(C(=O)NCCC(=O)O)cc1` (centres unmarked): the Ki was found to be 266 nM.

In turn, `CCCCCCC(Cc1ccc(-c2ccc(C(F)(F)F)cc2)cc1)c1ccc(C(=O)NCCC(=O)O)cc1` (centres unmarked) returned a Ki of 232 nM.
